Data taken from patent US20180215781A1, “BETUIN DERIVATIVES FOR PREVENTING OR TREATING HIV INFECTIONS” (GLAXOSMITHKLINE INTELLECTUAL PROPERTY (NO.2) LIMITED, priority 2015, published 2018).
Structures can show the parent of a compound that is named as a salt.

Columns and labels:
[1] = tested on: HIV; details: cited from earlier work
[2] = tested on: NL4-3 wt; experiment: MT4 Cell Antiviral Assay, NL4-3 wt; assay type: cell-based, HIV-1; details: Human immunodeficiency virus 1, NL43, HIV MT4 Antiviral Cell Assay of Example 11
[3] = tested on: V370A; experiment: MT4 Cell Antiviral Assay, V370A; assay type: cell-based, HIV-1; details: Human immunodeficiency virus 1, MT4, read-out: EC50V370A

| Structure (SMILES) | reduced HIV viral load, mean ([1]; patients with trough levels >=20 μg/mL and without key baseline Gag polymorphisms at Q369, V370 or T371) [log10/mL] | viral load reductions versus patients without Gag polymorphisms ([1]; users with Gag polymorphisms at Q369, V370 or T371) | EC50 [2] [nM] | EC50 [3] [nM] |
| --- | --- | --- | --- | --- |
| C=C(C)[C@@H]1CC[C@]2(C(=O)O)CC[C@]3(C)[C@H](CC[C@@H]4[C@@]5(C)CC[C@H](OC(=O)CC(C)(C)C(=O)O)C(C)(C)[C@@H]5CC[C@]43C)[C@@H]12 [Bevirimat] | 1.3 | significantly lower load reductions | – | – |
| COCC(=O)N(CC1CC1)C[C@H](O)[C@@]12CC[C@]3(C)[C@H](CC[C@@H]4[C@@]5(C)CC=C(C6=CCC(C(=O)O)CC6)C(C)(C)[C@@H]5CC[C@]43C)C1=C(C(C)C)C(=O)C2 (stereo partly drawn) [Example 1, 4-((3aR,5aR,5bR,7aR,11aS, 11bR,13aS)-3a-((R)-2-(N-(cyclopropylmethyl)-2-methoxyacetamido)-1-hydroxyethyl)-1-isopropyl-5a,5b,8,8,11a-pentamethyl-2-oxo-3,3a,4,5,5a,5b,6,7,7a,8, 11,11a,11b,12,13,13a-hexadecahydro-2H-cyclopenta[a]chrysen-9-yl)cyclohex-3-enecarboxylic acid] | – | – | 7.9 | 8.9 |
| CC(C)C1=C2[C@H]3CC[C@@H]4[C@@]5(C)CC=C(C6=CCC(C(=O)O)CC6)C(C)(C)[C@@H]5CC[C@@]4(C)[C@]3(C)CC[C@@]2([C@@H](O)CN(CC2CC2)C(=O)CN(C)C)CC1=O (stereo partly drawn) [Example 2, 4-((3aR,5aR,5bR,7aR,11aS, 11bR,13aS)-3a-((R)-2-(N-(cyclopropylmethyl)-2-(dimethylamino)acetamido)-1-hydroxyethyl)-1-isopropyl-5a,5b,8,8,11a-pentamethyl-2-oxo-3,3a,4,5,5a,5b,6,7,7a,8, 11,11a,11b,12,13,13a-hexadecahydro-2H-cyclopenta[a]chrysen-9-yl)cyclohex-3-enecarboxylic acid] | – | – | 5.4 | 11.2 |
| CC(C)C1=C2[C@H]3CC[C@@H]4[C@@]5(C)CC=C(C6=CCC(C(=O)O)CC6)C(C)(C)[C@@H]5CC[C@@]4(C)[C@]3(C)CC[C@@]2([C@@H](O)CN(CC2CC2)C(=O)CN2CCCC2)CC1=O (stereo partly drawn) [Example 3, 4-((3aR,5aR,5bR,7aR,11aS, 11bR,13aS)-3a-((R)-2-(N-(cyclopropylmethyl)-2-(pyrrolidin-1-yl)acetamido)-1-hydroxyethyl)-1-isopropyl-5a,5b,8,8,11a-pentamethyl-2-oxo-3,3a,4,5,5a,5b,6,7,7a,8, 11,11a,11b,12,13,13a-hexadecahydro-2H-cyclopenta[a]chrysen-9-yl)cyclohex-3-enecarboxylic acid] | – | – | 3.3 | 3.7 |
| CC(C)C1=C2[C@H]3CC[C@@H]4[C@@]5(C)CC=C(C6=CCC(C(=O)O)CC6)C(C)(C)[C@@H]5CC[C@@]4(C)[C@]3(C)CC[C@@]2([C@@H](O)CN(CC2CC2)C(=O)CN2CCCC2=O)CC1=O (stereo partly drawn) [Example 4, 4-((3aR,5aR,5bR,7aR,11aS, 11bR,13aS)-3a-((R)-2-(N-(cyclopropylmethyl)-2-(2-oxopyrrolidin-1-yl)acetamido)-1-hydroxyethyl)-1-isopropyl-5a,5b,8,8,11a-pentamethyl-2-oxo-3,3a,4,5,5a,5b,6,7,7a,8, 11,11a,11b,12,13,13a-hexadecahydro-2H-cyclopenta[a]chrysen-9-yl)cyclohex-3-enecarboxylic acid] | – | – | 7.1 | 20.9 |
| COCC(=O)N(CC1CCC1)C[C@H](O)[C@@]12CC[C@]3(C)[C@H](CC[C@@H]4[C@@]5(C)CC=C(C6=CCC(C(=O)O)CC6)C(C)(C)[C@@H]5CC[C@]43C)C1=C(C(C)C)C(=O)C2 (stereo partly drawn) [Example 6, 4-((3aR,5aR,5bR,7aR,11aS, 11bR,13aS)-3a-((R)-2-(N-(cyclobutylmethyl)-2-methoxyacetamido)-1-hydroxyethyl)-1-isopropyl-5a,5b,8,8,11a-pentamethyl-2-oxo-3,3a,4,5,5a,5b,6,7,7a,8, 11,11a,11b,12,13,13a-hexadecahydro-2H-cyclopenta[a]chrysen-9-yl)cyclohex-3-enecarboxylic acid] | – | – | 10 | 20.4 |
| CC(C)C1=C2[C@H]3CC[C@@H]4[C@@]5(C)CC=C(C6=CCC(C(=O)O)CC6)C(C)(C)[C@@H]5CC[C@@]4(C)[C@]3(C)CC[C@@]2([C@@H](O)CN(CC2CCC2)C(=O)CN2CCCC2)CC1=O (stereo partly drawn) [Example 7, 4-((3aR,5aR,5bR,7aR,11aS, 11bR,13aS)-3a-((R)-2-(N-(cyclobutylmethyl)-2-(pyrrolidin-1-yl)acetamido)-1-hydroxyethyl)-1-isopropyl-5a,5b,8,8,11a-pentamethyl-2-oxo-3,3a,4,5,5a,5b,6,7,7a,8, 11,11a,11b,12,13,13a-hexadecahydro-2H-cyclopenta[a]chrysen-9-yl)cyclohex-3-enecarboxylic acid] | – | – | 5.8 | 4.1 |
| CC(C)C1=C2[C@H]3CC[C@@H]4[C@@]5(C)CC=C(C6=CCC(C(=O)O)CC6)C(C)(C)[C@@H]5CC[C@@]4(C)[C@]3(C)CC[C@@]2([C@@H](O)CN(CCN(C)C)Cc2ccc(Cl)cc2)CC1=O (stereo partly drawn) [Example 9, 4-((3aR,5aR,5bR,7aR,11aS, 11bR,13aS)-3a-((R)-2-((4-chlorobenzyl)(2-(dimethylamino)ethyl)amino)-1-hydroxyethyl)-1-isopropyl-5a,5b,8,8,11a-pentamethyl-2-oxo-3,3a,4,5,5a,5b,6,7,7a,8, 11,11a,11b,12,13,13a-hexadecahydro-2H-cyclopenta[a]chrysen-9-yl)cyclohex-3-enecarboxylic acid dihydrochloride] | – | – | 6.8 | 10.7 |
| CC(C)C1=C2[C@H]3CC[C@@H]4[C@@]5(C)CC=C(C6=CCC(C(=O)O)CC6)C(C)(C)[C@@H]5CC[C@@]4(C)[C@]3(C)CC[C@@]2([C@@H](O)CNCC2CC2)CC1=O (stereo partly drawn) [Example 10, 4-((3aR,5aR,5bR,7aR,11aS, 11bR,13aS)-3a-((R)-2-((cyclopropylmethyl)amino)-1-hydroxyethyl)-1-isopropyl-5a,5b,8,8,11a-pentamethyl-2-oxo-3,3a,4,5,5a,5b,6,7,7a,8, 11,11a,11b,12,13,13a-hexadecahydro-2H-cyclopenta[a]chrysen-9-yl)cyclohex-3-enecarboxylic acid] | – | – | 9.3 | 25100 |
